The values below come from patent publication US11253497B2, “Use of derivatives of polyunsaturated fatty acids as medicaments” (Lipopharma Therapeutics, S.L., priority 2009, dated 2022).

The IC50 is the concentration that inhibits the measured activity by half. Higher therefore signals lower potency.

Experiment [1] relates to brain cancer cell (glioma) U118. Description: Brain cancer (glioma) U118 cell growth. The settings on record: 72 hours of incubation. Type of experiment: cell-based. The protocol:
For the experiments shown in FIG. 1, cultured human Non Small Cell Lung Cancer cells (A549) in RPMI 1640 were used, supplemented with 10% foetal bovine serum and antibiotics, at 37° C. and 5% CO2. Cells were maintained in culture for 48 hours in the presence or absence of D-PUFAs and PUFAs indicated in Table 2 at a concentration of 250 µM. After treatment, cell count was performed and the study of the mechanisms involved in the antitumor activity of compounds was evaluated by flow cytometry. […] These values correspond to averages of three independent experiments.
(§1) These charts show the antitumor efficacy of the compounds of this invention against the growth of breast cancer cells, brain (glioma), and lung cancer. […] The other experimental conditions are identical to those described in the preceding paragraph.

Experiment [2] has as its system apolipoprotein AI (apoA-I). The experiment is described as follows: Levels of apoA-I in SHR rats (RT-PCR). Format: in vivo, rat. The note with it: 200 mg/kg day p.o., 30 days, before treatment 100%. The protocol:
(§2) In a separate experimental series, it was studied the effect of D-PUFA molecules of the present invention on blood pressure of SHR rats. In these animals both, blood pressure and levels of apolipoprotein AI (apoA-I) were measured. For these experiments Spontaneously Hypertensive Rats (SHR) were treated for 30 days with vehicle (water control) or compounds of the invention (200 mg/kg day, p.o.). At the end of this period, the animals' blood pressure and serum levels of apoA-I were measured. […] For these experiments, non-invasive methods for determining blood pressure (cuff-tail method) and gene expression for apoA-I (RT-PCR) described in the literature (Terés et al., 2008) were used. The usefulness of the molecules of the present invention for the treatment of cardiovascular diseases is reinforced by its capacity for reducing the levels of serum cholesterol and triglycerides (see below).
(§3) The average values of SHR before treatment were 214 mmHg and 100% respectively.

The test system of experiment [3] is breast cancer cells MDA-MB-231. The experiment is described as follows: Growth of breast cancer cells MDA-MB-231. Format: cell-based. The note with it: 72 hours of incubation. The protocol:
(§4) For the experiments shown in FIG. 1, cultured human Non Small Cell Lung Cancer cells (A549) in RPMI 1640 were used, supplemented with 10% foetal bovine serum and antibiotics, at 37° C. and 5% CO2. […] After treatment, cell count was performed and the study of the mechanisms involved in the antitumor activity of compounds was evaluated by flow cytometry. […] These values correspond to averages of three independent experiments.
as §1

The nature of experiment [4]: Serum cholesterol, triglycerides and glucose in SHR rats (colorimetric). Format: in vivo, rat. The settings on record: 200 mg/kg daily p.o., 28 days, untreated rats 100%. The protocol: In a separate experimental series, SHR rats were treated with various compounds of the present invention (200 mg/kg daily, 28 days, p.o.) and the levels of cholesterol, triglycerides and glucose in serum were measured by colorimetric methods. It was observed that these compounds induce significant (and in many cases marked) reductions in the levels of these metabolites (Table 16).
Values are expressed as percent, and in untreated (control) rats values were always considered as 100%.

The subject of experiment [5] is Spontaneously Hypertensive Rats (SHR). The experiment is described as follows: Blood pressure of SHR rats (cuff-tail method). Format: in vivo, rat. The settings on record: 200 mg/kg day p.o., 30 days, before treatment 214 mmHg. The protocol: as §2, §3
The next experiment concerns lung cancer cells A549. The experiment is described as follows: Growth of lung cancer cells A549 (IC50). Format: cell-based, human. The note with it: 72 hours of incubation. The protocol: as §4, §1

On to `CCC=CCC=CCC=CCCCCCCC(C)C(=O)OCC` (stereo not shown) [183N1], for which the IC50 in experiment [1] amounted to 324 µM; in experiment [3], 278 µM; in the experiment with lung cancer cells A549 it was 379 µM. Besides, the “Levels of apoA-I” value in experiment [2] is 189%. In addition, the “Cholesterol in serum (top number)” value in experiment [4] amounted to 72%. Besides, the “Glucose in serum (bottom number)” value in experiment [4] was determined as 84%. Besides, the “Triglycerides in serum (central number)” value in experiment [4] stood at 69%. For the same compound, the Blood pressure in experiment [5] is reported as 208 mm Hg.

In turn, `CCCCCC=CCC=CCCCCCCC(C)C(=O)OCC` (stereo not shown) [182N1] returned an IC50 in experiment [1] of 247 µM. Moreover, the “Levels of apoA-I” value in experiment [2] turned out to be 159%. The compound further yielded an IC50 in experiment [3] of 297 µM. For the same compound, in experiment [4], the “Cholesterol in serum (top number)” value was determined as 92%, the “Glucose in serum (bottom number)” value amounted to 90% and the “Triglycerides in serum (central number)” value is 93%. The compound further yielded a Blood pressure in experiment [5] of 187 mm Hg. The same compound had a half-maximal inhibitory concentration (IC50) with lung cancer cells A549 of 329 µM.

The compound `CCC=CCC=CCC=CCC=CCC=CCCC(C)C(=O)OCC` (stereo not shown) [205N1] came in with an IC50 in experiment [1] of 513 µM. Further, the “Levels of apoA-I” value in experiment [2] amounted to 293%. Besides, inhibition in experiment [3] was half-maximal at 289 µM (IC50). In addition, in experiment [4], the “Cholesterol in serum (top number)” value was determined as 80%, the “Glucose in serum (bottom number)” value was found to be 86% and the “Triglycerides in serum (central number)” value is listed as 73%. Moreover, the Blood pressure in experiment [5] was determined as 189 mm Hg. The IC50 with lung cancer cells A549 was determined as 384 µM.

In experiment [1], `CCCCCC=CCC=CCC=CCC=CCCC(C)C(=O)OCC` (stereo not shown) [204N1] registered an IC50 of 315 µM. For the same compound, in experiment [2], the “Levels of apoA-I” value came to 174%. Also, the IC50 in experiment [3] was determined as 274 µM. Besides, in experiment [4], the “Cholesterol in serum (top number)” value is 82%, the “Glucose in serum (bottom number)” value was 82% and the “Triglycerides in serum (central number)” value came to 81%. In experiment [5], the Blood pressure was 201 mm Hg. In the experiment with lung cancer cells A549, the IC50 came out at 420 µM.

`CCCCCC=CCC=CCC=CCCCC(C)C(=O)OCC` (stereo not shown) [183N2]: the IC50 in experiment [1] stood at 385 µM; in experiment [3] it was 186 µM; in the experiment on lung cancer cells A549 it was 255 µM. Moreover, the “Levels of apoA-I” value in experiment [2] is reported as 296%. Further, the “Cholesterol in serum (top number)” value in experiment [4] is 89%. In addition, the “Glucose in serum (bottom number)” value in experiment [4] is recorded as 92%. The “Triglycerides in serum (central number)” value in experiment [4] was 85%. The compound further registered a Blood pressure in experiment [5] of 194 mm Hg.
